Test results published in ChEMBL document CHEMBL6153083, “Synthesis, Structural Modification, and Antismall Cell Lung Cancer Activity of 3-Arylisoquinolines with Dual Inhibitory Activity on Topoisomerase I and II” (J Med Chem, 2025).

What was measured:
[1] = Antiproliferative activity against human NCI-H196 cells incubated for 72 hrs; type: functional, cell-based; conditions: NCI-H196, 72 h
[2] = system: NCI-H209; test: Antiproliferative activity against human NCI-H209 cells incubated for 72 hrs; type: functional, cell-based; conditions: NCI-H209, 72 h
[3] = Antiproliferative activity against human L02 cells incubated for 72 hrs; type: toxicity, cell-based
[4] = system: SHP77; test: Antiproliferative activity against human SHP77 cells incubated for 72 hrs; type: functional, cell-based; conditions: SHP77, 72 h
[5] = system: NCI-H1048; test: Antiproliferative activity against human NCI-H1048 cells incubated for 72 hrs; type: functional, cell-based; conditions: NCI-H1048, 72 h
[6] = system: NCI-H146; test: Antiproliferative activity against human NCI-H146 cells incubated for 72 hrs; type: functional, cell-based; conditions: NCI-H146, 72 h
[7] = Antiproliferative activity against human BEAS-2B cells incubated for 72 hrs; type: toxicity, cell-based
[8] = system: NCI-H446; test: Antiproliferative activity against human NCI-H446 cells incubated for 72 hrs; type: functional, cell-based; conditions: NCI-H446, 72 h
[9] = system: NCI-H82; test: Antiproliferative activity against human NCI-H82 cells incubated for 72 hrs; type: functional, cell-based; conditions: NCI-H82, 72 h

Structure (SMILES)	IC50 [1]	IC50 [2]	IC50 at 72 h [3]	IC50 [4]	IC50 [5]	IC50 [6]	IC50 at 72 h [7]	IC50 [8]	IC50 [9]
COCC1CCN(Cc2cc3c(cc2-c2cc4ccc5c(c4cn2)OCO5)OCO3)CC1	45.7 µM	53.1 µM	48.4 µM	38.5 µM	44.1 µM	37.1 µM	28.2 µM	39.3 µM	55.6 µM
CCC1CCCCN1Cc1cc2c(cc1-c1cc3ccc4c(c3cn1)OCO4)OCO2 (configuration not stated)	17.1 µM	25.4 µM	22.6 µM	20.8 µM	13.4 µM	33.1 µM	20.7 µM	16.9 µM	15.9 µM
c1c(CN2CCCCC2)c(-c2cc3ccc4c(c3cn2)OCO4)cc2c1OCO2	33.7 µM	55.6 µM	25.2 µM	30.2 µM	14.1 µM	> 100 µM	21.2 µM	20.2 µM	27.1 µM
OC1CCCN(Cc2cc3c(cc2-c2cc4ccc5c(c4cn2)OCO5)OCO3)CC1 (configuration not stated)	38.7 µM	47.5 µM	37.4 µM	28.4 µM	21 µM	30.9 µM	21.1 µM	45.9 µM	30 µM
FC(F)(F)C1CCN(Cc2cc3c(cc2-c2cc4ccc5c(c4cn2)OCO5)OCO3)CC1	34.5 µM	> 100 µM	56.3 µM	25.4 µM	> 100 µM	39.8 µM	> 100 µM	15.5 µM	> 100 µM
c1c(CN2CCCCCCC2)c(-c2cc3ccc4c(c3cn2)OCO4)cc2c1OCO2	10.9 µM	26.8 µM	23 µM	5.09 µM	5.17 µM	15.1 µM	24.3 µM	1.48 µM	10.2 µM
CC(C)(C)C(=O)C1CCN(Cc2cc3c(cc2-c2cc4ccc5c(c4cn2)OCO5)OCO3)CC1	> 100 µM	> 100 µM	> 100 µM	> 100 µM	> 100 µM	> 100 µM	> 100 µM	24.5 µM	> 100 µM
CC1(O)CCN(Cc2cc3c(cc2-c2cc4ccc5c(c4cn2)OCO5)OCO3)C1 (configuration not stated)	46.4 µM	72.7 µM	> 100 µM	32.4 µM	35.7 µM	20.2 µM	39.7 µM	38.9 µM	> 100 µM
CC1CCN(Cc2cc3c(cc2-c2cc4ccc5c(c4cn2)OCO5)OCO3)CC1	26.3 µM	55.8 µM	34.9 µM	31.1 µM	12.3 µM	44.1 µM	23.7 µM	42.7 µM	25.7 µM
c1c(CN2CC3CC3C2)c(-c2cc3ccc4c(c3cn2)OCO4)cc2c1OCO2 (configuration not stated)	38.9 µM	52.7 µM	26.8 µM	21.3 µM	16.8 µM	> 100 µM	23.7 µM	18.7 µM	29.1 µM
CCC(=O)C1CCN(Cc2cc3c(cc2-c2cc4ccc5c(c4cn2)OCO5)OCO3)CC1	34.5 µM	> 100 µM	41.7 µM	26.5 µM	> 100 µM	42.6 µM	> 100 µM	21.2 µM	48.8 µM
CC[C@@]1(O)C(=O)OCc2c1cc1n(c2=O)Cc2cc3c(CN(C)C)c(O)ccc3nc2-1 [TOPOTECAN]	16.3 µM	> 100 µM	0.26 µM	0.19 µM	> 100 µM	< 1.56 µM	< 0.07 µM	22 µM	0.41 µM
CC1(CO)CCN(Cc2cc3c(cc2-c2cc4ccc5c(c4cn2)OCO5)OCO3)CC1	40.5 µM	82.6 µM	37.9 µM	22.6 µM	29.8 µM	70.3 µM	21.2 µM	65.8 µM	56.9 µM
